In patent US20090286722A1 (priority 2005, published 2009):
No end group written: not given here. *: point of attachment. Palmitoyl = CCCCCCCCCCCCCCCC(=O)*

What was measured:
ob/ob mice [1] = experiment: Daily N-AcGIP(PEG) for 14 days in 12 weeks old ob/ob mice; type: in vivo
Description: FIG. 27 is a pair of line graphs showing the effects of daily N-AcGIP(PEG) administration on food intake and body weight. N-AcGIP(PEG) (25 nmoles/kg/day) or saline vehicle (control) were administered for the 14-day period. Values are mean±SEM for 8 mice.
FIG. 28 is a pair of line graphs showing changes of plasma glucose and insulin after daily treatment of ob/ob mice with N-AcGIP(PEG) (25 nmoles/kg/day) or saline vehicle (control) for 14 days. Values are mean±SEM for 8 mice.
FIG. 29 is a set of line graphs showing the effects of daily N-AcGIP(PEG) administration on glucose tolerance and plasma insulin response to glucose. Tests were conducted after 14 daily injections of either N-AcGIP(PEG) ([…]) or saline vehicle (control). Glucose (18 mmoles/kg) was administered by intraperitoneal injection. Plasma glucose and insulin AUC values for 0-60 min post injection are shown in the right panels. Values are mean±SEM for 8 mice. *p<0.05 compared to control.
FIG. 30 is a line graph and a bar graph showing the effects of daily N-AcGIP(PEG) administration on insulin sensitivity. Tests were conducted after 14 daily injections of either N-AcGIP(PEG) (25 nmoles/kg/day) or saline vehicle (control). Insulin (50 U/kg) was administered by intraperitoneal injection. Plasma glucose AUC values from baseline for 0-60 min post injection are shown in the right panels. Values are mean±SEM for 8 mice. *p<0.05 compared to control.

BRIN-BD11 cells = experiment: Insulin release from BRIN-BD11 cells, GIP alone and combined with antidiabetic drugs; type: cell-based; conditions: 5.6 mM glucose, 20 minutes; for insulin secretion, combination of agent with GIP compared with either agent alone: 10 nM GIP plus drug; for insulin secretion from BRIN-BD11 cells, agent alone: GIP 10 nM, drugs 25-200 μM
Description: Acute insulin-release studies were carried out using clonal pancreatic BRIN-BD11 cells, whose origin, characteristics and secretory responsiveness have been outlined in detail elsewhere (Irwin, N. et al., 2005, Biol. Chem. (In Press)). BRIN-BD11 cells were seeded into 24-multiwell plates at a density of 10^5 cells per well and allowed to attach overnight at 37° C.

[2] = system: dipeptidyl peptidase IV (DPP IV; EC 3.4.15.5); experiment: in the circulation; conditions: cited from earlier work
dipeptidyl peptidase IV [3] = experiment: purified porcine dipeptidyl peptidase IV (5 mU) in 50 mM triethanolamine-HCl (pH 7.8); conditions: 37° C., up to 24 hours
dipeptidyl peptidase IV [4] = biological target: dipeptidyl peptidase IV (Sus scrofa, UniProt P22411); experiment: DPP IV degradation, % intact peptide by HPLC; type: in vitro ADME, porcine; conditions: pig, purified porcine dipeptidyl peptidase IV (DPP IV), 37° C., pH 7.8
Description: (§1) HPLC peak area data were used to calculate the percentage intact peptide remaining at the various time points during the incubation.

[5] = biological target: purified porcine dipeptidyl peptidase IV (Sus scrofa, UniProt P22411); experiment: DPP IV degradation, % intact peptide by HPLC; type: in vitro ADME; conditions: 37° C., pH 7.8
Description: as §1

ob/ob mice [6] = experiment: 24 hour plasma glucose and insulin profile after a single dose in non-fasted ob/ob mice; type: in vivo; conditions: single 12.5 nmol/kg i.p.
Text: Dose of 12.5 nmol kg^−1 was chosen to evaluate the longer-term duration of action of a single dose of native or fatty acid derivatised GIP in non-fasted ob/ob mice.

Normal mice = experiment: Intraperitoneal glucose tolerance with peptide in younger versus older normal mice; type: in vivo; conditions: 25 nmol/kg i.p. with glucose 18 mmol/kg, AUC 0-60 min
Description: Body weight and food intake were recorded over five days before commencement of metabolic tests. Intraperitoneal (i.p.) glucose tolerance (18 mmol/kg body weight) was assessed in non-fasted animals.

ob/ob mice [7] = experiment: Acute glucose lowering and insulin release, peptide given i.p. with glucose to 18 hour fasted ob/ob mice; conditions: 25 nmol/kg i.p. with glucose 18 mmol/kg
Description: Obese diabetic (ob/ob) mice derived from the colony maintained at Aston University, UK (23) were used at 12-16 weeks of age. […] Drinking water and standard rodent maintenance diet (Trouw Nutrition, Cheshire, UK) were freely available.
Food intake and body weight were recorded daily from 5 days before commencement of the treatment regimes. Plasma glucose and insulin concentrations (10:00 h) were monitored at 2-4 day intervals. […] All acute tests were commenced at 10:00 h. […] Serum samples were taken for determination of glucagon concentrations. All other blood samples were collected from the cut tip of the tail vein of conscious mice into chilled fluoride/heparin coated glucose microcentrifuge tubes (Sarstedt, Nümbrecht, Germany) at the times indicated in the Figures. Blood samples were immediately centrifuged using a Beckman microcentrifuge (Beckman Instruments, Galway, Ireland) for 30 seconds at 13,000×g. The resulting plasma was then aliquoted into fresh tubes and stored at −20° C. prior to glucose and insulin determinations.

[8] = biological target: purified porcine dipeptidyl peptidase IV (porcine, UniProt P22411 38-766, limits assumed); experiment: cell-based or functional assay
[9] = after 14 days, glucose 18 mmol/kg i.p.

Chain of purified porcine dipeptidyl peptidase IV (Sus scrofa, UniProt P22411) (P22411 whole entry): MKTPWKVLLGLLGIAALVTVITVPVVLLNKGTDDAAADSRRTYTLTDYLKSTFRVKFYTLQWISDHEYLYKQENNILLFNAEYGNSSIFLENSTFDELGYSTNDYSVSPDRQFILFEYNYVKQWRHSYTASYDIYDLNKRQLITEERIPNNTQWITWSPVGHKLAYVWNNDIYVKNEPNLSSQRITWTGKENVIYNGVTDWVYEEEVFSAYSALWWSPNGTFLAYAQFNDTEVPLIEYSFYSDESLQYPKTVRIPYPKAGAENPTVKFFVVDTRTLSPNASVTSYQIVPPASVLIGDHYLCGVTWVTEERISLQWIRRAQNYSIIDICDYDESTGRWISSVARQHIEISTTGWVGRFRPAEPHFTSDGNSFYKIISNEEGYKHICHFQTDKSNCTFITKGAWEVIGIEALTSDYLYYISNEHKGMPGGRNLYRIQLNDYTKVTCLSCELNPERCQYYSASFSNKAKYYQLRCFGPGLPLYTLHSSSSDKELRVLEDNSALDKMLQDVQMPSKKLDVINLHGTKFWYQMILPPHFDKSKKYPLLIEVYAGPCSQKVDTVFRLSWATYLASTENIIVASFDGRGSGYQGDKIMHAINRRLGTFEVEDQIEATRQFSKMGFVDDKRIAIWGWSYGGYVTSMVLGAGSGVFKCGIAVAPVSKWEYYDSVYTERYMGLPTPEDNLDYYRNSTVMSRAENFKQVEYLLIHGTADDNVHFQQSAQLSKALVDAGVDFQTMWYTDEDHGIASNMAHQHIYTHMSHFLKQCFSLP
Chain of dipeptidyl peptidase IV (Sus scrofa, UniProt P22411) (P22411 whole entry): as above
Chain of purified porcine dipeptidyl peptidase IV (porcine, UniProt P22411 38-766, limits assumed) (P22411 38-766 limits assumed): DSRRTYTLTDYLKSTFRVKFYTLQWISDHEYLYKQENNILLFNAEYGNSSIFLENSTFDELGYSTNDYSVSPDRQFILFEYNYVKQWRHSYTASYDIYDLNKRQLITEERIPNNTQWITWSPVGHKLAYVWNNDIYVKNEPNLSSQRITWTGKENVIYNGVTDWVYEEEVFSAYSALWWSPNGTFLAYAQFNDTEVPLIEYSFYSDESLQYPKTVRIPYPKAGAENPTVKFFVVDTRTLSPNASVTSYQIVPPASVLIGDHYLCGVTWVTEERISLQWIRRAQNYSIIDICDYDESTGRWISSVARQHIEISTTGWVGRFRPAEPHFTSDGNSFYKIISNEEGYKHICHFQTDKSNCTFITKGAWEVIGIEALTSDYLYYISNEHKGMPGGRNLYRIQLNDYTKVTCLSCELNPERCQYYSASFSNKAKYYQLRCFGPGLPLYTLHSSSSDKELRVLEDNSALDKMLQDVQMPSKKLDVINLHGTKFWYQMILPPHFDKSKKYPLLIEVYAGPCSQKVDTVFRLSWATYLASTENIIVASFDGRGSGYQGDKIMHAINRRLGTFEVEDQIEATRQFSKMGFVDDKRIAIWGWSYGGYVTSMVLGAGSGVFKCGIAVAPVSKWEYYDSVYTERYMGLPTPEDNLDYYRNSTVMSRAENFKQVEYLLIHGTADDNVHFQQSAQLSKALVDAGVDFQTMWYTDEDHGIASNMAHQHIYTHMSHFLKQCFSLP

For “N-AcGIP(PEG): GIP molecule in which PEG is attached to the C-terminus and the Acetyl group to the opposite end”, which circulating insulin (ob/ob mice [1]; 25 nmoles/kg/day, 14 days) is on record?
The circulating insulin was “without appreciable change”.

And the “effect on body weight” value (ob/ob mice [1]; 25 nmoles/kg/day, 14 days)?
The value was “did not affect”.

What about the “effect on food intake” value (ob/ob mice [1]; 25 nmoles/kg/day, 14 days) of the same molecule?
The value was “did not affect”.

And the non-fasting glucose (ob/ob mice [1]; 25 nmoles/kg/day, 14 days)?
The non-fasting glucose was “decreased”.

And the “glucose tolerance after intraperitoneal glucose load” value (ob/ob mice [1]; [9])?
Its value is “improved glucose tolerance”.

What about the “overall glycaemic response after intraperitoneal glucose load” value (ob/ob mice [1]; [9]) of the same molecule?
Its value is “reduced the overall glycaemic response”.

And the “plasma insulin concentrations and insulin response to intraperitoneal glucose” value (ob/ob mice [1]; [9])?
The value was “enhanced”.

What about the “plasma glucose after administration of insulin (insulin sensitivity)” value (ob/ob mice [1]; after 14 days, insulin 50 U/kg i.p.) of the same molecule?
Its value is “lower plasma glucose concentrations”.

For CCCCNC(=O)NS(=O)(=O)c1ccc(C)cc1 [tolbutamide], which “insulin secretion, combination of agent with GIP compared with either agent alone” value (BRIN-BD11 cells) is on record?
The value was “significant potentiation”.

And the “insulin secretion from BRIN-BD11 cells, agent alone” value (BRIN-BD11 cells)?
The value was “stimulated insulin secretion”.

With “yaegtfisdysiamdkihqqdfvnwllaqkgkkndwkhnitq” as the molecule, how does the fragment found [2] read?
Its fragment found is “GIP(3-42), major”.

What about the fragment found (dipeptidyl peptidase IV [3]) of the same molecule?
The fragment found was “GIP(3-42), major, 2 hours”.

For COc1ccc(Cl)cc1C(=O)NCCc1ccc(S(=O)(=O)NC(=O)NC2CCCCC2)cc1 [glibenclamide], which “insulin secretion, combination of agent with GIP compared with either agent alone” value (BRIN-BD11 cells) is on record?
The value was “significant potentiation”.

What about the “insulin secretion from BRIN-BD11 cells, agent alone” value (BRIN-BD11 cells) of the same molecule?
Its value is “stimulated insulin secretion”.

Which “insulin secretion, combination of agent with GIP compared with either agent alone” value (BRIN-BD11 cells) does the source give for CC(C)[C@H]1CC[C@H](C(=O)N[C@H](Cc2ccccc2)C(=O)O)CC1 [nateglinide] here?
The value was “significant potentiation”.

What about the “insulin secretion from BRIN-BD11 cells, agent alone” value (BRIN-BD11 cells) of the same molecule?
Its value is “stimulated insulin secretion”.

Which remaining at 2 h, 2 mM (dipeptidyl peptidase IV [4]; 2 h incubation with DPP IV (5 mU), read-out: % Intact peptide remaining after time (h) 2) does the source give for CC[C@H](C)[C@H](NC(=O)[C@H](CO)NC(=O)[C@H](Cc1ccc(O)cc1)NC(=O)[C@H](CC(=O)O)NC(=O)[C@H](CO)NC(=O)[C@@H](NC(=O)[C@H](Cc1ccccc1)NC(=O)[C@@H](NC(=O)CNC(=O)[C@H](CCC(=O)O)NC(=O)[C@H](C)NC(=O)[C@@H](N)Cc1ccc(O)cc1)[C@@H](C)O)[C@@H](C)CC)C(=O)N[C@@H](C)C(=O)N[C@@H](CCSC)C(=O)N[C@@H](CC(=O)O)C(=O)N[C@@H](CCCCN)C(=O)N[C@H](C(=O)N[C@@H](Cc1c[nH]cn1)C(=O)N[C@@H](CCC(N)=O)C(=O)N[C@@H](CCC(N)=O)C(=O)N[C@@H](CC(=O)O)C(=O)N[C@@H](Cc1ccccc1)C(=O)N[C@H](C(=O)N[C@@H](CC(N)=O)C(=O)N[C@@H](Cc1c[nH]c2ccccc12)C(=O)N[C@@H](CC(C)C)C(=O)N[C@@H](CC(C)C)C(=O)N[C@@H](C)C(=O)N[C@@H](CCC(N)=O)C(=O)N[C@@H](CCCCN)C(=O)NCC(=O)N[C@@H](CCCCN)C(=O)N[C@@H](CCCCN)C(=O)N[C@@H](CC(N)=O)C(=O)N[C@@H](CC(=O)O)C(=O)N[C@@H](Cc1c[nH]c2ccccc12)C(=O)N[C@@H](CCCCN)C(=O)N[C@@H](Cc1c[nH]cn1)C(=O)N[C@@H](CC(N)=O)C(=O)N[C@H](C(=O)N[C@H](C(=O)N[C@@H](CCC(N)=O)C(=O)O)[C@@H](C)O)[C@@H](C)CC)C(C)C)[C@@H](C)CC [Native GIP, reference compound] here?
Its remaining at 2 h, 2 mM is 52 ± 3%.

What about the remaining at 8 h, 2 mM (dipeptidyl peptidase IV [4]; 8 h incubation with DPP IV (5 mU), read-out: % Intact peptide remaining after time (h) 8) of the same molecule?
The remaining at 8 h, 2 mM was 0%.

And the remaining at 24 h, 2 mM (dipeptidyl peptidase IV [4]; 24 h incubation with DPP IV (5 mU), read-out: % Intact peptide remaining after time (h) 24)?
The remaining at 24 h, 2 mM was 0%.

And the “% Intact peptide remaining after time (h) 0” value ([5]; 0 h incubation with DPP IV (5 mU))?
The value was 100%.

What about the “% Intact peptide remaining after time (h) 2” value ([5]; 2 h incubation with DPP IV (5 mU)) of the same molecule?
The value was 52±3%.

And the “% Intact peptide remaining after time (h) 8” value ([5]; 8 h incubation with DPP IV (5 mU))?
Its value is “completely degraded”.

What about the “effect on plasma glucose over 24 hours” value (ob/ob mice [6]) of the same molecule?
Its value is “transient, but not significant effect”.

And the “overall plasma glucose response in older mice compared to younger controls” value (Normal mice)?
The value was “significantly elevated”.

What about the “overall plasma insulin response in older mice compared to younger controls” value (Normal mice) of the same molecule?
The value was “significantly less”.

And the “insulin secretion from BRIN-BD11 cells, agent alone” value (BRIN-BD11 cells)?
Its value is “stimulated insulin secretion”.

And the “insulin release compared to glucose alone” value (ob/ob mice [7])?
Its value is “significantly greater”.

What about the “plasma glucose concentrations and AUC (0-60 min) compared to glucose alone” value (ob/ob mice [7]) of the same molecule?
The value was “neither this nor the overall AUC glucose excursion achieved significance”.

Which “% Intact peptide remaining after time (h): 0” value [8] does the source give for YAEGTFISDYSIAMDKIHQQDFVNWLLAQKGKKNDWKHNITQ (C-16 palmitoyl group on the epsilon amino group of Lys 16) [GIP(LysPAL^16)] here?
Its value is 100%.

And the “% Intact peptide remaining after time (h): 2” value [8]?
The value was 100%.

What about the “% Intact peptide remaining after time (h): 8” value [8] of the same molecule?
The value was 100%.

And the “% Intact peptide remaining after time (h): 24” value (shortened to “% Intact peptide remaining … 24”) [8]?
The value was 100%.

For YAEGTFISDYSIAMDKIHQQDFVNWLLAQKGKKNDWK(Palmitoyl)HNITQ [GIP(LysPAL^37)], which “% Intact peptide remaining after time (h): 0” value [8] is on record?
The value was 100%.

What about the “% Intact peptide remaining after time (h): 2” value [8] of the same molecule?
Its value is 100%.

What about the “% Intact peptide remaining after time (h): 8” value [8] of the same molecule?
Its value is 100%.

What about the “% Intact peptide remaining … 24” value [8] of the same molecule?
The value was 100%.

For YAEGTFISDYSIAMDKIHQQDFVNWLLAQKGKKNDWKHNITQ [native GIP (glucose-dependent insulinotropic polypeptide; gastric inhibitory polypeptide), GIP(1-42)], which “% Intact peptide remaining after time (h): 0” value [8] is on record?
The value was 100%.

What about the “% Intact peptide remaining after time (h): 2” value [8] of the same molecule?
The value was 52%.

What about the “% Intact peptide remaining after time (h): 8” value [8] of the same molecule?
Its value is 0%.

What about the “% Intact peptide remaining … 24” value [8] of the same molecule?
The value was 0%.
